The results in this text go back to paper PMC7529893, “Structural basis for substrate recognition and chemical inhibition of oncogenic MAGE ubiquitin ligases” (Nature Communications, 2020).

One experiment addresses T1, MAGE-A11:PCF11 interaction (GST-MAGE-A11 and FAM-PCF11_4) (Homo sapiens, UniProt P43364).
T1 construct: GST-MAGE-A11 MHD (human MAGE-A11 MHD amino acid 218-429); made in house; host or cells: E. coli BL21(DE3)
T1 sequence (P43364 218-429): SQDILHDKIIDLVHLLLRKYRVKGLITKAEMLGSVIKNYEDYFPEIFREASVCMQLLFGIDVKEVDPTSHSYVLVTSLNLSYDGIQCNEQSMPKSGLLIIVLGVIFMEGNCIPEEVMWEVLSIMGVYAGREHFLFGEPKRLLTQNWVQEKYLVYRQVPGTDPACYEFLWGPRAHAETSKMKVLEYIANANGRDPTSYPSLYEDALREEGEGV
Nature of the experiment: TR-FRET primary / single point screen at 15 µM. In kind it is binding. To be noted: single point TR-FRET screening of 797 quinoline compounds against MAGE-A11:PCF11. In short, it runs like this: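 TR-FRET 520/490 nm emission ratio was read after 90 min at room temperature. Wells held 5 nM GST-MAGE-A11, 5 nM Tb-anti-GST, 200 nM FAM-PCF11_4 and 15 µM compound in Tris pH 7.5 buffer with MgCl2, BSA and DTT. %Inhibition was scaled to DMSO and minus-MAGE-A11 controls.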
For orientation: In TR-FRET formats the signal depends on donor and acceptor labels being close together.
With `COC(=O)c1ccc(CNCCCNc2c3ccc(Cl)cc3nc3ccc(OC)cc23)cc1` [SJ000522957], the “percent inhibition (TR-FRET)” value is recorded as -133.032.
Same read-out and setting: in the case of `COc1ccc2nc3cc(Cl)ccc3c(NCCCNCc3ccc(Cl)cc3Cl)c2c1` [SJ000522958] it was -97.8295; in that of `CCCN(CCCNc1c2ccc(Cl)cc2nc2ccc(OC)cc12)Cc1ccc(OC)c(F)c1` [SJ000522963], -177.507.
On the same count and under the same terms, in the case of `CCCN(CCCNc1c2ccc(Cl)cc2nc2ccc(OC)cc12)Cc1cn(C)c2ccccc12` [SJ000522964] it was -162.244; in that of `CCCCN(CCC)CCCNc1c2ccc(Cl)cc2nc2ccc(OC)cc12` [SJ000522971], -286.942.
On the same count and under the same terms, in the case of `CCCN(CCCNc1c2ccc(Cl)cc2nc2ccc(OC)cc12)Cc1ccc(CC)cc1` [SJ000522972] it was -105.076; in that of `CCCN(CCCNc1c2ccc(Cl)cc2nc2ccc(OC)cc12)Cc1nccn1C` [SJ000522973], -159.863.
Consider `CCCN(CCCNc1c2ccc(Cl)cc2nc2ccc(OC)cc12)Cc1scnc1C` [SJ000522976], for which the “percent inhibition (TR-FRET)” value is given as -127.026.
`CCCN(CCCNc1c2ccc(Cl)cc2nc2ccc(OC)cc12)Cc1c[nH]c2ccccc12` [SJ000522978]: the “percent inhibition (TR-FRET)” value is on record as -166.235.
With `CCCN(CCCNc1c2ccc(Cl)cc2nc2ccc(OC)cc12)Cc1cccc2c1OCO2` [SJ000522979], the “percent inhibition (TR-FRET)” value is listed as -107.991.
Still for that read-out and setting: in the case of `CCCN(CCCNc1c2ccc(Cl)cc2nc2ccc(OC)cc12)Cc1cnn(C)c1` [SJ000522980] it was -276.65.
The same measure, in the same setting: in the case of `CCCN(CCCNc1c2ccc(Cl)cc2nc2ccc(OC)cc12)CCOCc1ccccc1` [SJ000522981] it was -212.396; in that of `CCCN(CCCNc1c2ccc(Cl)cc2nc2ccc(OC)cc12)CCC(C)(C)C` [SJ000522983], -233.73; in that of `CCCN(CCCNc1c2ccc(Cl)cc2nc2ccc(OC)cc12)Cc1cccn1C` [SJ000522987], -302.626.
Same read-out and setting: in the case of `CCCN(CCCNc1c2ccc(Cl)cc2nc2ccc(OC)cc12)Cc1nccs1` [SJ000522988] it was -117.531.

The experiment is the same for the next values; noted with them: single point TR-FRET screening of quinoline compounds against MAGE-A11:PCF11; 15 µM.
Turning to `CCCN(CCCNc1ccnc2cc(Cl)ccc12)Cc1c(C)n(C)n(-c2ccccc2)c1=O` [SJ000522755], the “percent inhibition (TR-FRET)” value was found to be 13.6386.
On to `CCCN(CCCNc1ccnc2cc(Cl)ccc12)Cc1ccc(OC)cc1` [SJ000522756], for which the “percent inhibition (TR-FRET)” value worked out at 19.1371.
For the molecule `CCCN(CCCNc1ccnc2cc(Cl)ccc12)Cc1ccccc1F` [SJ000522757], the “percent inhibition (TR-FRET)” value was found to be 21.9858.
Regarding `CCCN(CCCNc1ccnc2cc(Cl)ccc12)Cc1cccc(F)c1` [SJ000522758], the “percent inhibition (TR-FRET)” value stood at 27.418.
Same read-out and setting: in the case of `CCCN(CCCNc1ccnc2cc(Cl)ccc12)Cc1ccc(F)cc1` [SJ000522759] it was 20.7933; in that of `CCCN(CCCNc1ccnc2cc(Cl)ccc12)Cc1cc2ccccc2nc1Cl` [SJ000522760], 12.7954.
Same read-out and setting: in the case of `CCCN(CCCNc1ccnc2cc(Cl)ccc12)Cc1ccc(Cl)c([N+](=O)[O-])c1` [SJ000522761] it was 16.951.
On the same count and under the same terms, in the case of `CCCN(CCCNc1ccnc2cc(Cl)ccc12)Cc1c2ccccc2cc2ccccc12` [SJ000522762] it was 15.4935; in that of `CCCN(CCCNc1ccnc2cc(Cl)ccc12)Cc1cccc(C#N)c1` [SJ000522763], 12.9099.
In the case of `COc1ccc2nc3cc(Cl)ccc3c(NCCCNCc3cccc(C)c3)c2c1` [SJ000522956], the “percent inhibition (TR-FRET)” value is given as -7.0891.
Still for that read-out and setting: in the case of `COc1ccc2nc3cc(Cl)ccc3c(NCCCNCc3ccc(-c4cccc(Cl)c4)o3)c2c1` [SJ000522959] it was -47.4182; in that of `COc1ccc2nc3cc(Cl)ccc3c(NCCCNCc3c(Cl)ccc(Cl)c3Cl)c2c1` [SJ000522960], -81.4922; in that of `CCCN(CCCNc1c2ccc(Cl)cc2nc2ccc(OC)cc12)Cc1ccccc1OC(F)(F)F` [SJ000522961], 22.6913.
On the same count and under the same terms, in the case of `CCCN(CCCNc1c2ccc(Cl)cc2nc2ccc(OC)cc12)Cc1cc2ccccc2s1` [SJ000522962] it was -21.5824; in that of `CCCN(CCCNc1c2ccc(Cl)cc2nc2ccc(OC)cc12)Cc1cc(OC)ccc1F` [SJ000522965], -81.2358.
Same read-out and setting: in the case of `CCCN(CCCNc1c2ccc(Cl)cc2nc2ccc(OC)cc12)Cc1nc(C)cs1` [SJ000522966] it was -82.146.
Take `CCCN(CCCNc1c2ccc(Cl)cc2nc2ccc(OC)cc12)Cc1cccc(OC(F)(F)F)c1` [SJ000522967]: the “percent inhibition (TR-FRET)” value worked out at 14.4758.
The same measure, in the same setting: in the case of `CCCN(CCCNc1c2ccc(Cl)cc2nc2ccc(OC)cc12)Cc1c(F)cccc1C(F)(F)F` [SJ000522968] it was 23.0877; in that of `CCCN(CCCNc1c2ccc(Cl)cc2nc2ccc(OC)cc12)Cc1nc2ccccc2s1` [SJ000522969], -68.773; in that of `CCCN(CCCNc1c2ccc(Cl)cc2nc2ccc(OC)cc12)Cc1csc2ccccc12` [SJ000522970], -51.6891.
`CCCN(CCCNc1c2ccc(Cl)cc2nc2ccc(OC)cc12)Cc1ccc(Cl)c(C(F)(F)F)c1` [SJ000522974]: the “percent inhibition (TR-FRET)” value worked out at 16.3588.
On to `CCCN(CCCNc1c2ccc(Cl)cc2nc2ccc(OC)cc12)Cc1cncc(Br)c1` [SJ000522975], for which the “percent inhibition (TR-FRET)” value is on record as -89.0775.
For the molecule `CCCN(CCCNc1c2ccc(Cl)cc2nc2ccc(OC)cc12)Cc1cccnc1Br` [SJ000522977], the “percent inhibition (TR-FRET)” value was 0.2567.
The same measure, in the same setting: in the case of `CCCN(CCCNc1c2ccc(Cl)cc2nc2ccc(OC)cc12)Cc1cc(F)cc(F)c1O` [SJ000522982] it was 2.045; in that of `CCCN(CCCNc1c2ccc(Cl)cc2nc2ccc(OC)cc12)Cc1cc(OC(F)(F)F)ccc1OC` [SJ000522984], -36.7058.
Still for that read-out and setting: in the case of `CCCN(CCCNc1c2ccc(Cl)cc2nc2ccc(OC)cc12)Cc1cc(C(F)(F)F)ccc1OC` [SJ000522985] it was -46.0179; in that of `CCCN(CCCNc1c2ccc(Cl)cc2nc2ccc(OC)cc12)Cc1cccc(C(F)(F)F)c1` [SJ000522986], 16.1546.
`CCCN(CCCNc1c2ccc(Cl)cc2nc2ccc(OC)cc12)Cc1cc(Br)cs1` [SJ000522989]: the “percent inhibition (TR-FRET)” value was -56.7027.
Still for that read-out and setting: in the case of `CCCN(CCCNc1ccnc2cc(Cl)ccc12)Cc1c[nH]c(C)n1` [SJ000522990] it was 4.828; in that of `CCCN(CCCNc1ccnc2cc(Cl)ccc12)Cc1cc2ccccc2o1` [SJ000522991], 9.295.
Same read-out and setting: in the case of `CCCN(CCCNc1ccnc2cc(Cl)ccc12)Cc1c[nH]c2ccc(F)cc12` [SJ000522992] it was 29.3392; in that of `CCCN(CCCNc1ccnc2cc(Cl)ccc12)Cc1cc2ccccc2s1` [SJ000522993], 5.864; in that of `CCCN(CCCNc1ccnc2cc(Cl)ccc12)Cc1ccc(OC)c(F)c1` [SJ000522994], 15.1623.
With `CCCN(CCCNc1ccnc2cc(Cl)ccc12)Cc1cn(C)c2ccccc12` [SJ000522995], the “percent inhibition (TR-FRET)” value was -1.532.
Turning to `CCCN(CCCNc1ccnc2cc(Cl)ccc12)Cc1cc(OC)ccc1F` [SJ000522996], the “percent inhibition (TR-FRET)” value amounted to 26.6585.
Still for that read-out and setting: in the case of `CCCN(CCCNc1ccnc2cc(Cl)ccc12)Cc1nc(C)cs1` [SJ000522997] it was 3.413; in that of `CCCN(CCCNc1ccnc2cc(Cl)ccc12)Cc1ccc(OC(F)(F)F)cc1` [SJ000522999], 22.7376; in that of `C#Cc1ccccc1CN(CCC)CCCNc1ccnc2cc(Cl)ccc12` [SJ000523000], 12.4462.
Same read-out and setting: in the case of `CCCN(CCCNc1ccnc2cc(Cl)ccc12)Cc1ccc(CC)cc1` [SJ000523001] it was 30.1342; in that of `CCCN(CCCNc1ccnc2cc(Cl)ccc12)Cc1nccn1C` [SJ000523002], 6.351.
With `CCCN(CCCNc1ccnc2cc(Cl)ccc12)Cc1cncc(Br)c1` [SJ000523004], the “percent inhibition (TR-FRET)” value is 4.828.
Same read-out and setting: in the case of `CCCN(CCCNc1ccnc2cc(Cl)ccc12)Cc1scnc1C` [SJ000523005] it was 11.85; in that of `CCCN(CCCNc1ccnc2cc(Cl)ccc12)Cc1cccnc1Br` [SJ000523006], 13.3074; in that of `CCCN(CCCNc1ccnc2cc(Cl)ccc12)Cc1c[nH]c2ccccc12` [SJ000523007], 26.2256.
Same read-out and setting: in the case of `CCCN(CCCNc1ccnc2cc(Cl)ccc12)Cc1ncc[nH]1` [SJ000523008] it was 4.165; in that of `CCCN(CCCNc1ccnc2cc(Cl)ccc12)Cc1cnn(C)c1` [SJ000523009], 10.0613; in that of `CCCN(CCCNc1ccnc2cc(Cl)ccc12)Cc1[nH]cnc1C` [SJ000523010], 12.0487.
For the molecule `CCCN(CCCNc1ccnc2cc(Cl)ccc12)Cc1cc(OC(F)(F)F)ccc1OC` [SJ000523011], the “percent inhibition (TR-FRET)” value turned out to be 15.666.
On the same count and under the same terms, in the case of `CCCN(CCCNc1ccnc2cc(Cl)ccc12)Cc1cc(C(F)(F)F)ccc1OC` [SJ000523012] it was 30.3991.
